Data set [1] has as its system KCNQ4. In words: shRNA- and CRISPR-mediated knockdown of KCNQ4 expression in HEK293 cells (FIG. 3, lanes). The settings on record: HEK293 cells with KCNQ4 construct, N=4 biological replicates. The class given is cell-based, human. The procedure:
The following shRNA constructs and KCNQ4 constructs were tested in HEK293 cells: sh395, sh909, sh1095, sh1531, sh1593, sh1677, sh1721, and sh1827 (see FIG. 3). The following constructs were tested in HEK293 cells as a positive control (e.g., as a reference for maximum knockdown of KCNQ4 that can be achieved): SaCas9+sgRNA 447Fw+KCNQ4 (lane 11). A shVEGF construct (targeting VEGF) and KCNQ4 construct were tested in HEK293 cells as a negative control (lane 10). In addition, only the KCNQ4 construct was tested in HEK293 cells as a negative control (lane 12). […] The level of expression of KCNQ4 was most reduced by sh1827 and sgRNA 447Fw in this example. FIGS. 11 and 12 each show efficacy of knockdown with each of the shRNA constructs as well as an empty shRNA construct (“Mock”). Levels of KCNQ4 were measured using quantitative PCR, normalized to GAPDH. Two independent biological replicates were performed (FIGS. 11 and 12), each of which had three replicates per condition.

In data set [2] the test system is KCNQ4. In words: SaCas9/gRNA knockdown of KCNQ4 in HEK cells, western blot, TIDE, immunofluorescence (FIG. 10). It is filed as cell-based, human. The settings on record: western blot and immunofluorescence analyses (data not shown). From the text: The present example describes a targeting strategy that knocks out both KCNQ4 alleles and replaces wild-type KCNQ4 with a codon-optimized KCNQ4 using a SaCas9/gRNA strategy FIG. (FIG. 9). The present example also describes an in vitro analysis of KCNQ4 knockdown in HEK cells via Western blot and quantitative PCR.
The following guides were transfected with SaCas9 and KCNQ4 DNA to determine knockdown efficiency: sg233Fw (lane 2), sg386Fw (lane 3), sg408Rev (lane 4), sg447Fw(lane 5), sg482Fw (lane 6), and sg490Fw (lane 7). An untransfected control (lane 8), sgVEGF (targeting VEGF) (lane 9), and Beta-Actin expression (lanes 2-9) were used as controls. […] To expand and/or improve upon results obtained thus far, similar experiments can be performed in 3T3 cells using deadCas9 and mouse sgRNA sequences.
In general terms: A western blot detects proteins with antibodies after separation by electrophoresis.

For the substance “sh1827: shRNA construct targeting KCNQ4; by order probably SEQ ID NO: 55 (GGTGGATGAAATCAGCATGATCGAAATCATGCTGATTTCATCCACC)”, the “level of expression of KCNQ4” value with KCNQ4 [1] was “most reduced”.
“sgRNA 408Rev: gRNA targeting KCNQ4, SEQ ID NO: 43, target AAGCCGAAAACCACGATCATC (expressed or natural sequence)”: the “inhibition of KCNQ4 expression relative to other sgRNAs” value in the data set on KCNQ4 [2] is reported as “inhibited KNCQ4 expression more than other sgRNAs”.
Regarding “sgRNA 447Fw: gRNA targeting KCNQ4, SEQ ID NO: 45, target TTTCGGCTTGGAGTACATCGT; used with SaCas9 (expressed or natural sequence)”, the “level of expression of KCNQ4” value with KCNQ4 [1] is listed as “most reduced”.
With “sgRNA 386Fw: gRNA targeting KCNQ4, SEQ ID NO: 42, target AGGAGCACCAGGAACTTGCCA (expressed or natural sequence)”, in the data set on KCNQ4 [2], the “inhibition of KCNQ4 expression relative to other sgRNAs” value is recorded as “inhibited KNCQ4 expression more than other sgRNAs”.
